# What was measured:
# [1] = biological target: T1, Human estrogen receptor (HOR) (Homo sapiens, UniProt P03372); test: Relative bond affinity (RBA), recombinant human estrogen receptor, charcoal dextran technique; format: binding; settings: 24 h at 0° C., Estradiol = 100
# T1 construct: made in house; host or cells: SF9 insect cells (baculovirus), lysate supernatant
# T1 sequence (P03372 1-595): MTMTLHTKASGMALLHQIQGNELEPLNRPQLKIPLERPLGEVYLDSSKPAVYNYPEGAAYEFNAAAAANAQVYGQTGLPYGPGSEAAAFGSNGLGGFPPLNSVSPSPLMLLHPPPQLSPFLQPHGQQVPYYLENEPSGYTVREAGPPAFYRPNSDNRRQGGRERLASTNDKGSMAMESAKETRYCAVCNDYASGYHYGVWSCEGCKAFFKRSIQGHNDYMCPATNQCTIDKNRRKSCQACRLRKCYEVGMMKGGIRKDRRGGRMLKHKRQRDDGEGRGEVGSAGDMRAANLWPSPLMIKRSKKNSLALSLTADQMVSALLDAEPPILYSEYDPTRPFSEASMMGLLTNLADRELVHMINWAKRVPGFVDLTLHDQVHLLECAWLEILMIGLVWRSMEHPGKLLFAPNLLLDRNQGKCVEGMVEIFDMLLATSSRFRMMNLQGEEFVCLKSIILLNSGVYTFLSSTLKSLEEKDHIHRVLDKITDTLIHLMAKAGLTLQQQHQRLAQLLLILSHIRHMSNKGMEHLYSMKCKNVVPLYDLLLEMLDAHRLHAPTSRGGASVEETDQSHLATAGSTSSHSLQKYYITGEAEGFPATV
# From the text: The human recombinant receptor (HGR, HPR, HAR, HMR, HER) was used.
# Human estrogen receptor (HOR):
# A supernatant of SF9 cells containing the recombinant human estrogen receptor was obtained by the process described above for the progestogen receptor using the cDNA fragment described in the expression vector HEGO by Tora et al (The EMBO Journal, (1989), Vol. 8 No. 7, p. 1981-1986) containing the region coding for the human estrogen receptor of "wild type" with a glycine in position 400. The cells obtained were lysed in the lysis buffer (1).
# The supernatant was incubated at 0° C. for 24 hours with a constant concentration (T) of tritiated estradiol in the presence of increasing concentrations of either unlabelled estradiol (0-1000×10^-9 M), or the unlabelled product to be tested (1 to 25000×10^-9 M). The concentration of bound tritiated estradiol (B) was then measured in each incubate using the charcoal dextran adsorption technique.
# Calculation of the relative bond affinity (RBA).
# The following two curves were drawn: the percentage of bound tritiated hormone B/BO as a function of the logarithm of the concentration of unlabelled reference hormone or as a function of the logarithm of the concentration of unlabelled test product. The straight line of the following equation was determined: […]
# The intersections of the straight line I50 and the curves allowed the evaluation of the concentrations of unlabelled reference hormone (CH) and of the unlabelled test product (CX) which inhibited by 50% the specific binding of the tritiated hormone on the receptor.
# The relative bond affinity (RBA) of the test product was determined by the equation:
# The RBA's of reference products Estradiol, Progesterone Dexamethasone, Testosterone and Aldosterone were arbitrarily taken as being equal to 100.
# [2] = system: endometrial proliferation (uterine lace); test: Progestomimetic activity: endometrial transformation in the rabbit (Clauberg-McPhail test); format: in vivo; parameters: key to Maximal activity on the uterine lace (McPhail index) / Average uterine lace (McPhail Index): McPhail scale 0–4 with 0.5 steps (endometrial proliferation); settings: for Average uterine lace (McPhail Index): s/c, day 8 to day 11
# Protocol: 2. --Determination of the progestomimetic activity of the products of the invention: Endometrial transformation in the rabbit. The animals used were impuberal female rabbits which were 40-45 days old. The animals were treated with estradiol (5 ug/0.2 ml/rabbit in solution of corn oil, 10% ethanol) by subcutaneous route from day 1 to day 5, then the product to be studied was administered from day 8 to day 11. On day 12, the animals were sacrificed and a median portion of each uterine cornua was removed from each animal and fixed in Bouin's liquid for histological study. After fixing, the samples were dehydrated, included, cut, mounted, the paraffin was removed and then the sample was stained with hemalum-eosin-saffron. […] Then, for each of the cornua, a semi-quantitative evaluation of the endometrial proliferation (uterine lace) was carried out by the McPhail scale from 0 to 4 with 0.5 intermediates and the two figures were averaged. Similarly, the degree of hypertrophy of the cornua was evaluated by the same scale. At higher magnification, morphological observations of the mucous membrane or the myometrium could possibly be formulated. The 1-OH metabolite (product A) was tested at doses of 10, 100, 1000 μg/kg by subcutaneous route as well as orally at a dose of 1000 μg/kg. The 6-OH metabolite (product B) was tested at doses of 100, 1000 and 10000 μg/kg subcutaneously. As a control, progesterone was administered at doses of 100 and 1000 μg/kg by subcutaneous route. The averages were produced for the uterine lace (McPhail Index).
Compound,"RBA, Human estrogen receptor [1]","RBA, Human estrogen receptor ([1]; listed as product B)","Average uterine lace (McPhail Index) ([2]; rabbit, 0,01 mg/kg)","Average uterine lace (McPhail Index) ([2]; rabbit, 0,1 mg/kg)","RBA, Human estrogen receptor ([1]; listed as Trimegesterone)","minimal effective dose ([2]; Oryctolagus cuniculus, rabbit, note on this test, read-out: Dose from which progestomimetic activity starts) [µg/kg]"
"C[C@H](O)C(=O)[C@@]1(C)CC[C@H]2[C@@H]3C[C@@H](O)C4=CC(=O)CCC4=C3CC[C@@]21C [Product B, [6β, 17β-(S)]-6-hydroxy-17-(2-hydroxy-1-oxopropyl)-17-methyl-Δ^4,9-estradiene-3-one]",0,zero,"1,4",2,,
"C[C@H](O)C(=O)[C@@]1(C)CC[C@H]2[C@@H]3CCC4=CC(=O)CCC4=C3CC[C@@]21C [Trimegestone, [17β-(S)]-17-(2-hydroxy-1-oxopropyl)-17-methyl-Δ^4,9-estradiene-3-one, reference compound]",0,,,,zero,1

# — patent US5834452A, “1- or 6-hydroxylated steroids” (Roussel Uclaf, priority 1996, dated 1998)
